{"source": "paper PMC7883873", "about": "“Discovery of New Catalytic Topoisomerase II Inhibitors for Anticancer Therapeutics” (Frontiers in Oncology, 2021)", "key": {"TOP2A [1]": {"biological_target": "T1, TOP2A (Homo sapiens, UniProt P11388)", "T1 sequence (P11388 whole entry)": "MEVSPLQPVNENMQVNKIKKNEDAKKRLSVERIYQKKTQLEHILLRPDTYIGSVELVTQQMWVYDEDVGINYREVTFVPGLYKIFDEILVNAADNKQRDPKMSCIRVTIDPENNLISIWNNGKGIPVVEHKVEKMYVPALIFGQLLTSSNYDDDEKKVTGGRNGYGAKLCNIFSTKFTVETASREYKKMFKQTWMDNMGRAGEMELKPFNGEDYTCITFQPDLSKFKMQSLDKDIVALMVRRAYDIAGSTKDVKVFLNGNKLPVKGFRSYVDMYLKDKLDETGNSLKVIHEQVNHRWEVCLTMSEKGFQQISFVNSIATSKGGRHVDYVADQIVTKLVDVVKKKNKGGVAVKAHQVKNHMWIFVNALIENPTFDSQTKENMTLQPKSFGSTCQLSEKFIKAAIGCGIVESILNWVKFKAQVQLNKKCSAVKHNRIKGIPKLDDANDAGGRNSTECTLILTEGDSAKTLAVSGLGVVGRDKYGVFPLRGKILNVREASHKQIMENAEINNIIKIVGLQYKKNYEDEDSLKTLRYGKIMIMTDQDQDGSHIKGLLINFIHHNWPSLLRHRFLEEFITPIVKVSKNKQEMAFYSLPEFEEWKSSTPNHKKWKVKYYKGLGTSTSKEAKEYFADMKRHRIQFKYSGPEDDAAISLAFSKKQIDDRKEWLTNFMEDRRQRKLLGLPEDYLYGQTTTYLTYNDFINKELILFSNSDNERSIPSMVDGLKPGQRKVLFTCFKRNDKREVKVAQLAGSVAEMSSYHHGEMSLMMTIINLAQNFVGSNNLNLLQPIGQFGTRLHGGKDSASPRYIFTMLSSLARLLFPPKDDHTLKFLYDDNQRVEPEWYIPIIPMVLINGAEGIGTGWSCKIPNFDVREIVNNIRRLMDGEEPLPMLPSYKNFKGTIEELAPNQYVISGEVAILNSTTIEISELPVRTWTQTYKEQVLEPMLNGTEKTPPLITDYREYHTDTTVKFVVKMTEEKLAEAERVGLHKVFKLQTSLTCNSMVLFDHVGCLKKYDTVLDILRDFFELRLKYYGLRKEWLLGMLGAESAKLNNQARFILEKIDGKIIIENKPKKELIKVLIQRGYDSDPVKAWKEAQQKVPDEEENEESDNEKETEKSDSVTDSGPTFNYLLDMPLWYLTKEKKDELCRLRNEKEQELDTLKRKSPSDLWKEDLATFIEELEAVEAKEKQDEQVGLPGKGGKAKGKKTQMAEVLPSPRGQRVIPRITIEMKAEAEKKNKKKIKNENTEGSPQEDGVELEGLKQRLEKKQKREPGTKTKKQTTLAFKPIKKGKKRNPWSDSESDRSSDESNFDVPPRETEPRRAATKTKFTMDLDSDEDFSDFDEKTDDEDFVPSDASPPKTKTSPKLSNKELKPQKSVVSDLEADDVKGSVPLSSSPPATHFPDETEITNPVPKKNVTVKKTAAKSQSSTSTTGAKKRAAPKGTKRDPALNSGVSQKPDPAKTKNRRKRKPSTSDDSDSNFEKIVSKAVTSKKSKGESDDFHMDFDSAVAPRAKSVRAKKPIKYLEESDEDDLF", "assay": "Relaxation and K-DNA decatenation assays of candidates and T60 derivatives (SAR)", "type": "biochemical", "design": "full-length human TOP2A and TOP2B protein (TopoGEN and Inspiralis respectively); purchased TopoGEN TG1001 (human TOP2 assay kit)", "settings": "compared with T60", "experimental": "(§1) The human TOP2 assay kit (#TG1001, TopoGEN, Buena Vista, CO) and TOP2B (HTB205, Inspiralis, UK) were used for K-DNA decatenation assays. […] The reaction was incubated at 37C for 2 h after which 4 µl stop solution (5× buffer is 5% Sarkosyl, 0.125% bromophenol blue, 25% glycerol) was added. The reaction was resolved by electrophoresis on a 0.8% agarose gel at 60 V and stained with 0.5 µg/ml ethidium bromide for 15 min. DNA bands were visualized using a gel imager (Gel Doc™ EZ System) and quantified using the Image Studio™ Lite Quantification Software.\n(§2) The human TOP2A and TOP2B were used to perform DNA relaxation assays. […] The reaction was incubated at 37C for 2 h and stopped by adding 2 µl of 10% SDS and 1 µl of 250 mM of EDTA, followed by the addition of 50 µg/ml of proteinase K at 45 C for 1 h. The reaction was then resolved by electrophoresis on a 1% agarose gel at 80 V and stained with 0.5 µg/ml ethidium bromide for 15 min. DNA bands were visualized using a gel imager (Gel Doc™ EZ System) and quantified using the Image Studio™ Lite Quantification Software."}, "TOP2B [2]": {"biological_target": "T2, TOP2B (Homo sapiens, UniProt Q02880)", "T2 sequence (Q02880 whole entry)": "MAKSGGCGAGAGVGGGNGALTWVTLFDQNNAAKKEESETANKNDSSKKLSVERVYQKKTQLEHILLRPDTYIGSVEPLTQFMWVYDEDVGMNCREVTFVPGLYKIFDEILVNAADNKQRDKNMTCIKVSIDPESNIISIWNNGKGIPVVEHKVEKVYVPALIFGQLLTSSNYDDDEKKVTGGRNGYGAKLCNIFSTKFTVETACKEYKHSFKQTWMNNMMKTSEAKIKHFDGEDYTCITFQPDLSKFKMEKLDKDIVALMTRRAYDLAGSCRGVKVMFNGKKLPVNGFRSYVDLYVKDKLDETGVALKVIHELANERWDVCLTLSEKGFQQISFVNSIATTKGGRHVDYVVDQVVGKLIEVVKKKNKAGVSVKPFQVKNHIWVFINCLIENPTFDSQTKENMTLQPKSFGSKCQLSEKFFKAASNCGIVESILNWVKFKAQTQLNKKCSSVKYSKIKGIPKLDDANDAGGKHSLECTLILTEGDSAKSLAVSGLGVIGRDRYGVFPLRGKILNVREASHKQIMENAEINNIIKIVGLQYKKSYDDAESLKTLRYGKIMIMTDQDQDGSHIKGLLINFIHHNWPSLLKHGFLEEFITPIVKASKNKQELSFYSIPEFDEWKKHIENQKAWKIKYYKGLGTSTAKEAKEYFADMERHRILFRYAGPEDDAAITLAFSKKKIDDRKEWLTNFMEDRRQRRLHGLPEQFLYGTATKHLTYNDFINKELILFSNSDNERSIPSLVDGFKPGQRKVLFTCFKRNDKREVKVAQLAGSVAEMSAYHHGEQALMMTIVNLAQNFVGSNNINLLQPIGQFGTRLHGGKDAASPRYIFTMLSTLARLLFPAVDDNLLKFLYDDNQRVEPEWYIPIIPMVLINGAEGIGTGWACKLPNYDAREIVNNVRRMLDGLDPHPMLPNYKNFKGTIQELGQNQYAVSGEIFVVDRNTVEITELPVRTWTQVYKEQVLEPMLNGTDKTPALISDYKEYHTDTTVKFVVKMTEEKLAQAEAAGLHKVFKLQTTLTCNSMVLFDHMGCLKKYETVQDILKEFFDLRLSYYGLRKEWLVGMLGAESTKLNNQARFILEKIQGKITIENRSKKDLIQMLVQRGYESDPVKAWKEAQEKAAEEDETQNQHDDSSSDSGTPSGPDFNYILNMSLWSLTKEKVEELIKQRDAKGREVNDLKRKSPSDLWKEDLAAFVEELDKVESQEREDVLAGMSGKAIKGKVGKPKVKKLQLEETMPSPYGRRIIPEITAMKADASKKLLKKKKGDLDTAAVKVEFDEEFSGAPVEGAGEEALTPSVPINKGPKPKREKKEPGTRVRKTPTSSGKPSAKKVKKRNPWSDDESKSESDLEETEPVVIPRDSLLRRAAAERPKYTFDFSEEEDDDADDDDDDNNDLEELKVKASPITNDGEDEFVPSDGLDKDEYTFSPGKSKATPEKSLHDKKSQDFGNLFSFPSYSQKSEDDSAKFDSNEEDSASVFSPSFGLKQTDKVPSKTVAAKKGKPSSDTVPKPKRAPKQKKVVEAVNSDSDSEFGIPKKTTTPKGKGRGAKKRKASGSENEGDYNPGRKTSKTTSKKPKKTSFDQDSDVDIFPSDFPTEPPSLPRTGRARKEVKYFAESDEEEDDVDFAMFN", "assay": "DNA cleavage assay", "type": "biochemical", "design": "full-length human TOP2A and TOP2B protein (TopoGEN and Inspiralis respectively); purchased Inspiralis HTB205", "settings": "co-treatment with 200 µM etoposide; 1, 100, 200 µM", "experimental": "The reactions were incubated in 37C for 30 min and stopped by adding 2 µl of 10% SDS and 1 µl of 250 mM of EDTA, followed by the addition of 50 µg/ml of proteinase K at 45C for 30 min. The reaction was then resolved by electrophoresis on a 1% agarose gel containing […] ethidium bromide in TAE buffer at 60 V. DNA bands were visualized using a gel imager (Gel Doc™ EZ System) and quantified by using the Image Studio™ Lite Quantification Software."}, "HeLa cells [3]": {"tested_on": "HeLa cells", "assay": "LDH cytotoxicity assay", "type": "cell-based", "settings": "0–20 µM, 48 h", "experimental": "(§3) Cell proliferation rates were measured by using the CellTitre 96 AqueousOne kit (Promega) and bromodeoxyuridine (BrdU) assay kit (Millipore) according to the manufacturer’s protocol as we have described ([51]). Cytotoxicity was evaluated by using the commercial kit (CAT# 8078, ThermoFisher). Culture media was collected and used to measure lactate dehydrogenase (LDH) levels by a colorimetric method following the manufacture’s protocol (ThermoFisher). Cell cycling was assessed by using BrdU incorporation into S-phase DNA by using the APC BrdU flow kit (BD Pharmingen; Franklin Lakes, New Jersey) according to the manufacturer’s protocol. 1 mM of BrdU was added to cells and incubated for 6 h. Cells were incubated with anti-BrdU antibody and stained with 7-AAD before processing the cells for flow cytometry ([52]). Immunoblotting assays followed the standard protocol as we have reported ([51]–[53])."}, "TOP2B [4]": {"biological_target": "T2, TOP2B", "assay": "DNA relaxation assay (supercoiled pHOT-1 plasmid)", "type": "biochemical", "design": "full-length human TOP2A and TOP2B protein (TopoGEN and Inspiralis respectively); purchased Inspiralis HTB205", "settings": "densitometry of SC bands; read-out: IC50, inhibition of TOP2B plasmid DNA relaxation", "experimental": "as §2"}, "[5]": {"tested_on": "phospho-H2AXγ protein levels in K562 cells", "assay": "Immunoblotting of phospho-H2AXγ (DNA damage)", "type": "cell-based", "settings": "4 h", "experimental": "as §3"}, "AR": {"tested_on": "AR", "assay": "Probasin- and PSA-luciferase reporter in 293T cells", "type": "cell-based", "settings": "0-20 µM"}, "[6]": {"tested_on": "GFP-AR transfected DU145 cells", "assay": "AR subcellular localization by microscopy", "type": "cell-based", "settings": "20 µM, 24 h"}, "HeLa cells [7]": {"tested_on": "HeLa cells", "assay": "BrdU incorporation assay", "type": "cell-based", "settings": "20 µM, 48 h", "experimental": "as §3"}, "salmon sperm DNA": {"tested_on": "salmon sperm DNA", "assay": "Ethidium bromide displacement assay", "type": "binding", "settings": "increasing doses; 100 µg/ml DNA, 2 µg/ml ethidium bromide", "experimental": "Ethidium bromide displacement assay was performed as previously described ([49], [50]) using Amsacrine (mAMSA) as a positive control. In a 20 µl reaction, compounds were mixed with 100 µg/ml of salmon sperm DNA and 2 µg/ml of ethidium bromide in a fluorescence buffer containing 10 mM HEPES, pH 7.9, 100 mM KCl, 5 mM MgCl2, 0.1 mM EDTA, pH 8.0. Triplicate reactions were subjected to fluorescence emission of 590 nm and excitation of 535 nm. Signals were detected by using the Multimode Microplate Reader, Infinite® F500."}, "HeLa cells [8]": {"tested_on": "HeLa cells", "assay": "FACS cell cycle assay", "type": "cell-based", "settings": "20 µM, 48 h", "experimental": "as §3"}, "[9]": {"tested_on": "K562, U937, NCI-H82, and NCCIT cancer cells", "assay": "Co-treatment with paclitaxel or camptothecin, MTS assay", "type": "cell-based", "settings": "5-20 µM T60 co-treatment", "experimental": "as §3"}, "TOP2A [10]": {"biological_target": "T1, TOP2A", "assay": "K-DNA decatenation assay", "type": "biochemical", "design": "full-length human TOP2A and TOP2B protein (TopoGEN and Inspiralis respectively); purchased TopoGEN TG1001 (human TOP2 assay kit)", "experimental": "as §1"}, "K562 cells": {"tested_on": "K562 cells", "assay": "Cell proliferation, MTS assay", "type": "cell-based", "settings": "0-20 µM, 0-72 h", "experimental": "as §3"}, "[11]": {"tested_on": "AR proteins in LNCaP cells", "assay": "AR nuclear localization, cytoplasmic/nuclear western blotting", "type": "cell-based", "settings": "20 µM, 24 h"}}, "data": [{"smiles": "O=C(Nc1ccc(Nc2ccccc2)cc1)c1ccc[nH]c1=S", "note": "[T60]", "values": [{"measurement": "Activity on TOP2", "setting": "TOP2A [1]", "value": "less active"}, {"measurement": "Prevention of etoposide-induced DNA cleavage, TOP2B", "setting": "TOP2B [2]", "value": "prevented"}, {"measurement": "Cytotoxicity (LDH release)", "setting": "HeLa cells [3]", "value": "low cytotoxicity"}, {"measurement": "IC50", "setting": "TOP2B [4]", "value": "~8.9", "unit": "µM"}, {"measurement": "Effect on etoposide-induced phospho-H2AXγ protein levels", "setting": "[5]; 20 µM, co-treated with 10–20 µM etoposide", "value": "inhibited etoposide-induced phospho-H2AXγ protein levels"}, {"measurement": "Intracellular DNA damage (phospho-H2AXγ protein levels)", "setting": "[5]; 10–20 µM", "value": "did not cause intracellular DNA damage"}, {"measurement": "Luciferase activities driven by probasin and PSA promoters, AR", "setting": "AR", "value": "inhibited luciferase activities"}, {"measurement": "Nuclear localization of GFP-AR, DU145", "setting": "[6]", "value": "reduced nuclear localization"}, {"measurement": "DNA replication (BrdU incorporation)", "setting": "HeLa cells [7]", "value": "reduced DNA replication"}, {"measurement": "Fluorescence of ethidium bromide/DNA complex (DNA intercalation)", "setting": "salmon sperm DNA", "value": "does not intercalate with DNA"}, {"measurement": "Cell cycle distribution", "setting": "HeLa cells [8]", "value": "reduced at the G1 phase, but accumulated at S and G2/M phases"}, {"measurement": "Effect on effectiveness of paclitaxel and camptothecin in suppressing cancer cell growth", "setting": "[9]", "value": "enhanced the effectiveness of these drugs"}, {"measurement": "Inhibition of TOP2A mediated K-DNA decatenation", "setting": "TOP2A [10]; Figure 3A", "value": "inhibited"}, {"measurement": "IC50", "setting": "TOP2A [10]; densitometry of D-DNA bands, read-out: IC50, inhibition of TOP2A K-DNA decatenation", "value": "~0.3", "unit": "µM"}, {"measurement": "K562 cell proliferation", "setting": "K562 cells", "value": "inhibited K562 cell proliferation in a dose- and time-dependent manner"}, {"measurement": "Nuclear localization of AR proteins, LNCaP", "setting": "[11]", "value": "reduced nuclear localization"}]}]}
